Molecules are shown by their SMILES. Where two headings read alike, the source gives them in different places.

Data on 6 compounds can be found in article PMC8877822, “Interrogation of the Structure–Activity Relationship of a Lipophilic Nitroaromatic Prodrug Series Designed for Cancer Gene Therapy Applications” (Pharmaceuticals, 2022).

Series [1] in a line: in vivo. It counts as in vivo, mice. Conditions: for MTD: NIH-III nude, mouse, in vivo, ip, i.p., read-out: Maximum tolerated dose (MTD). The source says: NfsA_Ec potency and bystander effect from the diffusion of activated metabolites is only one determinant of the therapeutic utility of a GDEPT prodrug. Overall, anti-tumor activity will also depend on the efficiency of metabolic activation at well-tolerated prodrug doses, determined mainly by the relationship between host toxicity and plasma/tumor pharmacokinetics. Like PR-104A, the three lead prodrugs (1, 2, and 6) contain an alcohol side chain that requires addition of a phosphate ester to increase water solubility for in vivo applications. […] Employing identical methods, we determined the MTD of compounds 2-P and 6-P to be 1000 µmol/kg and 1330 µmol/kg, respectively (data summary in Table S1). In preparation for efficacy testing against H1299 xenografts, we next determined the MTD of each compound (1-P, 2-P, and 6-P) in H1299 tumor-bearing mice to be 1330 µmol/kg, 750 µmol/kg, and 1330 µmol/kg, respectively (Table S1). In each case 1-P, 2-P, and 6-P administration (i.p.) was well tolerated, with no evidence of morbidity or mortality, accompanied by a minimal body weight loss (BWL) nadir of −2.2%, −4.0%, and −5.3%, respectively (MTD defined as <−15% average BWL).
(§1) An estimated starting dose was determined from related compounds. Animals were promptly euthanized if body weight loss exceeded 20% or if there were clinical signs of severe morbidity. The MTD was defined as the highest dose, at which all animals survived (death rate < 1/6) with no unacceptable morbidity, and where the next dose increment had caused at least one death. Tumors were inoculated onto the flanks of NIH-III nude mice by subcutaneous injection of 10^7 H1299 cells. Tumor-bearing mice were randomized to treatment groups (n = 5 mice per group) when tumors reached treatment size (300–350 mm^3) and injected with a single intraperitoneal dose of pre-prodrug. Tumor size and body weights were measured regularly. Tumor volume was calculated as π(Lxw^2)/6, where L is the major axis and w is the perpendicular minor axis. Animals were euthanized when the tumor volume had increased fourfold relative to pre-treatment volume (RTV4, survival endpoint) or if body weight loss exceeded 20% of the pre-treatment value. Kaplan–Meier plots were constructed, and median time to endpoint was calculated. Treatment efficacy was assessed by comparing the median survival time with untreated animals using the Log-rank test p-test (Sigmaplot version 11.0).
Supplementary Table S1. Summary of maximum tolerated dose of test compounds
Footnotes: BWL nadir % = body weight loss percentage (time independent nadir). HEP = humane endpoint. * =
Non-tumour bearing H1299 tumour bearing

The subject of series [2] is mixed H1299 xenograft containing 28% NfsA_Ec cells and 72% WT cells. Kind of series: Tumor growth delay assay, mixed H1299 xenograft. It counts as in vivo, mice. Conditions: for Survival time compared to PR-104 treated tumors: single i.p. dose: 1-P 1330 µmol/kg. The protocol:
These ratios were broadly similar to those observed in HCT116 cells (Figure 2). A mixed H1299 xenograft model containing a minority percentage (28 ± 3.3%) of NfsA_Ec-expressing cells was used in order to rank the efficacy of the prodrugs in vivo. A model such as this necessitates the presence of a robust bystander effect to achieve a tumor growth delay. Tumor-bearing mice were administered a single intraperitoneal dose of prodrugs 1-P, 2-P, and 6-P at the H1299 tumor-bearing MTD. PR-104 was administered at 388 µmol/kg, the human equivalent dose (HED) in mice that provides a plasma AUCfree of PR-104A (38 µM-h) that equates to the human Q3W MTD of 1100 mg/m^2 [22].
as §1
Figure 5 In vivo efficacy of the three lead pre-prodrug compounds in a mixed H1299 xenograft containing 28% NfsA_Ec cells and 72% WT cells. (A) Tumor growth and (B) survival analysis of mice bearing 250 mm^3 H1299 tumors treated with a single intraperitoneal dose of prodrug on day 0. N = 5 animals per group. Control = PBS, PR-104 = 388 µmol/kg; 1-P = 1330 μmol/kg; 2-P = 750 μmol/kg; and 6-P = 1330 μmol/kg. Survival endpoint was 4× start volume (RTV4).

For series [3] the following is noted: non-tumour bearing, cited from earlier work.
Series [4] is described as follows: LogD7.4 by low-volume octanol/PBS shake-flask method. It counts as physicochemical. Conditions: n-octanol/PBS; octanol-water partition coefficient, shake-flask method at pH 7.4. The protocol:
Distribution ratios (LogD7.4) were determined by a low-volume octanol/PBS shake-flask method. Briefly, saturated solutions of octanol and PBS were prepared by mixing equal volumes of n-octanol and PBS (pH 7.4) before being left for three days. The octanol and PBS phases were then carefully separated and left to stand for at least 24 h. Stock solutions (0.1–0.5 mM) of each compound were prepared in octanol saturated with PBS. The stock solutions were diluted with octanol saturated with PBS containing and inter-assay control (acridone) to a final compound concentration of 50 μM. Aliquots (450 μL) were then taken in triplicate, and 450 μL of PBS saturated with octanol was added into amber tubes. The tubes were then sealed in parafilm and rotated for 90 min at 30 rpm to equilibrate. After centrifugation (15,000× g, 5 min, 20°C) the octanol and PBS phases were separated into different tubes and the octanol phase diluted with methanol (1:5 v/v). Both phases were analyzed by HPLC (diode-array detector at 364 ± 10 nm) by injecting 50 μL of the PBS phase and 15 μL of the diluted octanol phase. The results were then expressed as the log ratio of the peak areas obtained from the octanol and PBS phases corrected for dilution and injection volume.

In series [5] the test system is SiHa xenografts. Kind of series: Tumor excision assay, clonogenic cell kill of SiHa xenografts. It counts as in vivo, mice. Conditions: 18 h after treatment, PR-104 380 µmol/kg i.p., 6-P 1330 µmol/kg i.p. As to the method: The sensitivity of four cancer cell lines to prodrug 6 was determined under aerobic or anoxic conditions using an anti-proliferative IC50 assay. […] We also evaluated the hypoxic activity of 6-P versus PR-104 in vivo using a SiHa xenograft model (Figure 6B).
When tumors reached treatment size (>400 mm^3), mice were treated with drug by a single intraperitoneal injection of pre-prodrug or vehicle. Mice treated with ionizing radiation were exposed to 10 Gray prior to drug treatment, using a cobalt-60 source from an Eldorado G unit. Animals were euthanized 18 h after drug treatment, and tumors were excised and homogenized using sterile scissors until a fine mince was obtained. Following enzymatic dissociation (2.5 mg/mL pronase, 1 mg/mL collagenase, and 0.2 mg/mL DNAase in αMEM + 10% FBS + 1% P/S, 1 mL per 50 mg), cells were plated at concentrations of 10^2–10^5 cells per 60 mm dish and grown for 10 days before colonies were stained with methylene blue (2 g/L in 50% aqueous alcohol). Colonies containing >50 cells were counted as clonogenic survivors. From these values, plating efficiency (colonies/cells plated), number of clonogens per gram of tumor tissue (plating efficiency × total cells), and log cell kill relative to vehicle treated controls (log clonogens per gram) were calculated. Statistical analysis was undertaken using Holm–Sidak’s one-way ANOVA (Sigmaplot version 11.0).
(A) In vitro anti-proliferative activity of 6 in various cancer cell lines under aerobic and anoxic conditions. IC50 values were determined as the concentration of drug required to inhibit cell growth by 50% of untreated controls following 4 h drug exposure and five days regrowth (mean ±SEM of three or more independent determinations). (B) Clonogenic cell kill of SiHa xenografts 18 h after treatment with hypoxia activated prodrugs PR-104 (380 µmol/kg, i.p.) or 6-P (1330 µmol/kg, i.p.) with or without 10 Gy radiation.

Where [6] appears, read: H1299 tumour bearing, dose 1330 µmol/kg.
Setting [7] is: H1299 tumour bearing, dose 1780 µmol/kg.
Where [8] appears, read: H1299 tumour bearing, dose 750 µmol/kg.
Setting [9] is: H1299 tumour bearing, dose 1000 µmol/kg.
Setting [10] is: non-tumour bearing, dose 1000 µmol/kg.
The mark [11] stands for this setting: non-tumour bearing, dose 1330 µmol/kg.
Setting [12] is: non-tumour bearing, dose 1780 µmol/kg.

Consider `CS(=O)(=O)c1cc([N+](=O)[O-])c(C(=O)NCCOP(=O)(O)O)cc1N(CCBr)CCBr` [Compound 1-P], for which, in series [1] (setting [6]), the BWL nadir is reported as -2.2%, the Deaths worked out at 0, the “HEP (humane endpoint)” value is on record as 0 and the “MTD (Yes/above)” value is given as “Yes”. In series [1] (setting [7]), the BWL nadir is -7.6%, the Deaths worked out at 1, the “HEP (humane endpoint)” value is reported as 1 and the “MTD (Yes/above)” value is reported as “above”. Further, the MTD in series [1] (H1299 tumor-bearing mice) was 1330 µmol/kg. For the same compound, in series [2] (2-P 750 µmol/kg), the “Survival time compared to PR-104 treated tumors” value is on record as “did not produce an improvement in survival time”. Also, in series [3] (dose 1780 µmol/kg), the BWL nadir is listed as -2.8%, the Deaths is 0, the “HEP (humane endpoint)” value is 0 and the “MTD (Yes/above)” value is “Yes”. Moreover, in series [3] (dose 2370 µmol/kg), the BWL nadir is listed as -6.9%, the Deaths is listed as 2, the “HEP (humane endpoint)” value is 0 and the “MTD (Yes/above)” value was “above”. For the same compound, the “Maximum tolerated dose (MTD)” value in series [3] (nude mice, i.p.) is 1780 µmol/kg.

Regarding `CN(CCOP(=O)(O)O)C(=O)c1cc(N(CCBr)CCBr)c(S(C)(=O)=O)cc1[N+](=O)[O-]` [Compound 2-P, 2-(5-(Bis(2-bromoethyl)amino)-N-methyl-4-(methylsulfonyl)-2-nitrobenzamido)ethyl dihydrogen phosphate], the BWL nadir in series [1] (setting [8]) is listed as -4.0%; in series [1] (setting [9]), -8.7%; in series [1] (setting [10]), -2.5%; in series [1] (setting [11]), -10.5%. Moreover, the Deaths in series [1] (setting [8]) was 0; in series [1] (setting [9]), 2; in series [1] (setting [10]), 0; in series [1] (setting [11]), 1. Further, the “HEP (humane endpoint)” value in series [1] (setting [8]) worked out at 0; in series [1] (setting [9]), 0; in series [1] (setting [10]), 0; in series [1] (setting [11]), 1. In addition, the “MTD (Yes/above)” value in series [1] (setting [8]) is on record as “Yes”; in series [1] (setting [9]), “above”; in series [1] (setting [10]) it was “Yes”; in series [1] (setting [11]), “above”. In addition, the MTD in series [1] (H1299 tumor-bearing mice) came to 750 µmol/kg; in series [1] (nude mice, non-tumour bearing), 1000 µmol/kg. In series [2] (2-P 750 µmol/kg), the “Survival time compared to PR-104 treated tumors” value is reported as “did not produce an improvement in survival time”.

Take `CCN(CCO)C(=O)c1cc(N(CCBr)CCBr)c(S(C)(=O)=O)cc1[N+](=O)[O-]` [Compound 3]: the logD at 90 min in series [4] was 1.6.

In the case of `CCS(=O)(=O)c1cc([N+](=O)[O-])c(C(=O)NCCO)cc1N(CCBr)CCBr` [Compound 5, 5-(Bis(2-bromoethyl)amino)-N-(2-hydroxyethyl)-4-(ethylsulfonyl)-2-nitrobenzamide], the melting point was 137 to 140 °C. The compound also gave a logD at 90 min in series [4] of 1.5.

`CCS(=O)(=O)c1cc([N+](=O)[O-])c(C(=O)N(C)CCOP(=O)(O)O)cc1N(CCBr)CCBr` [Compound 6-P, 2-(5-(bis(2-bromoethyl)amino)-4-(ethylsulfonyl)-N-methyl-2-nitrobenzamido)ethyl dihydrogen phosphate]: in series [1] (setting [6]), the BWL nadir is -5.3%, the Deaths turned out to be 0, the “HEP (humane endpoint)” value is 0 and the “MTD (Yes/above)” value is given as “Yes”. Besides, in series [1] (H1299 tumor-bearing mice), the MTD was found to be 1330 µmol/kg. The MTD in series [1] (nude mice, non-tumour bearing) came to 1330 µmol/kg. In series [1] (setting [11]), the BWL nadir is recorded as -1.8%, the Deaths is 0, the “HEP (humane endpoint)” value came out at 0 and the “MTD (Yes/above)” value is on record as “Yes”. In addition, in series [1] (setting [12]), the Deaths was 0, the “HEP (humane endpoint)” value is reported as 2 and the “MTD (Yes/above)” value is on record as “above”. Besides, in series [2] (single i.p. dose, 6-P 1330 µmol/kg, PR-104 388 µmol/kg), the “Tumor growth delay compared to PR-104 treated group” value is given as 92%. The “Tumor growth delay (median time to RTV4) compared to untreated controls” value in series [2] (single i.p. dose: PR-104 388 µmol/kg, 1-P 1330 µmol/kg, 2-P 750 µmol/kg, 6-P 1330 µmol/kg) was found to be 156%. In addition, in series [5] (10 Gy radiation), the “Log cell kill, in combination with radiotherapy” value amounted to 4.05. The “Log cell kill, single agent” value in series [5] was found to be 1.06.

Turning to `CCCS(=O)(=O)c1cc([N+](=O)[O-])c(C(=O)NCCO)cc1N(CCBr)CCBr` [Compound 8], the melting point lay within 128 to 129 °C.
